Read-outs that look alike come from different tables or passages of the source.
Experiments:
[1] = Pharmacokinetics after slow intravenous bolus in female Sprague-Dawley rats; assay type: in vivo; conditions: 10 mg/kg slow intravenous bolus; for half-life: iv, 10 mg/kg
Description: The objective of this study was to investigate the pharmacokinetics of tegavivint following a single intravenous slow bolus administration of tegavivint to female Sprague-Dawley rats.
Dose Preparation and Administration The stock formulation (25 mg/mL) was provided. Accurately, 600 μL of dose formulation (Stock, 25 mg/mL) was transferred to labeled glass container. To this, 2.4 mL of 5% dextrose solution was added, vortex mixed and sonicated to obtain homogeneous suspension of 5 mg/mL strength. Animals were dosed underfed condition. Rats were administered a single dose of 10 mg/kg of tegavivint by slow intravenous bolus (over 1.5 min) jugular vein catheter using 1 mL BD syringe guided with 23 G blunt needle at a dose volume of 2 mL/kg. Syringes used for dosing were weighed before and after dose administration in order to calculate the actual dose administered.
Sample Collection and Processing Blood samples were collected at 0.083, 0.25, 0.5, 1, 2, 4, 6, 8, 12 and 24 h post dose. At each time point, approximately, 0.25 mL of blood was withdrawn from jugular vein of the cannulated rat and transferred to a labeled microfuge tube containing 200 mM K2EDTA (20 μL per mL of blood). Following sampling, equal volume of heparinized saline was replaced into the catheter. The blood samples were kept on wet ice at all times immediately after collection and the plasma was separated by centrifugation at 5000 g for 5 minutes at 4±2° C. The plasma samples were separated within 1 h of scheduled time and stored below −60° C. until bioanalysis.
Bioanalysis Bioanalysis was performed using fit-for-purpose LC-MS/MS method for the quantification of BC2059 in rat plasma samples. The calibration curve (CC) for the method consisted of at least 6 non-zero calibration standards along with a blank and blank with internal standard samples with a lower limit of quantification (LLOQ) of 0.050 μg/mL. Study samples were analyzed along with three sets of quality control samples (9 QC samples; low, medium and high QC samples in triplicate).
Pharmacokinetic Data Analysis The pharmacokinetic parameters for tegavivint were calculated using the non-compartmental analysis tool ([…]) of the validated Phoenix® WinNonlin® software (version 6.3). The area under the concentration time curve (AUClast and AUCinf) was calculated by linear trapezoidal rule. The CO (back extrapolated concentration at time zero) was estimated following intravenous bolus dose administration by back-extrapolating the first two concentration values. The total plasma clearance (CL) and volume of distribution at steady-state (Vss) were estimated values. The elimination rate constant value (k) was calculated by linear regression of the log-linear terminal phase of the concentration-time profile using at least 3 declining concentrations in terminal phase with a correlation coefficient of >0.8. The terminal half-life value (T½) was calculated using the equation 0.693/k. The alpha and beta half-lifes were calculated and reported.

[2] = Aerosol concentration of nebulized formulations in rodent nose-only exposure chamber; assay type: physicochemical
From the text: A series of BC-2059 (tegavivint) formulations were aerosolized using vibrating mesh and compressed air nebulizers to determine the most efficient method of aerosol generation. The aerosols were characterized for aerosol concentration and particle size distribution in a rodent nose-only exposure chamber. Each formulation had different variables adjusted to assess impact on aerosol performance. These included particle size reduction of the API, excipient profile and nebulizer utilized.
Test article BC-2059 was suspended in 0.1% Tween 80 in purified water at a concentration of 15 mg/mL. The suspension was sonicated using a Covaris S220x Ultrasonicator (Covaris, Boston MA) and then mixed on a vortex for one minute. Sonication and mixing by vortex was repeated a total of 15 times.
The remaining bulk BC-2059 powder was ground in a Planetary Ball Mill (Retsch, Germany) for 10 minutes at 150 RPMs utilizing a 12 mL ball mill jar and three metal balls. The milled BC-2059 powder was suspended in 0.1% Tween 80 in purified water at a concentration of 15 mg/mL. The suspension was sonicated using the procedure outlined above.
The remaining bulk BC-2059 powder was ground in a Planetary Ball Mill (Retsch, Germany) for 60 minutes at 300 RPMs utilizing a 12 mL ball mill jar and three metal balls. The milled BC-2059 powder was suspended in 0.1% Tween 80 in purified water and 10% PEG 400 in purified water at a concentration of 15 mg/mL. The suspensions were sonicated using the procedure outlined above. An additional 15 mg/mL BC-2059 suspension using 10% ethanol in purified water was prepared. The suspension was sonicated for 10 minutes using a VWR sonicator (VWR, Radnor PA) and mixed for 4 minutes using a vortex mixer. […]
The aerosols were generated from formulations prepared with a series of surfactants with 4 separate nebulizers (Aeroneb Solo (Aerogen, Ireland), Pari LC Plus (Pari Respiratory Equipment Inc. Midlothian VA), Hospitak Up Mist, Hospitak Inc. Farmdale, NY), and Hudson Micro-Mist (Teleflex Inc. Research Triangle Park, NC) and transitioned into a 2 tier flow-past rodent exposure system.
The total concentration of aerosol in the exposure atmosphere was determined by the analysis of filter samples (GF/A 47-mm filters). Filter samples were collected at a nominal flow rate of 0.3 L/min. Filter samples collected throughout the study were analyzed gravimetrically to determine the total aerosol concentration, and submitted for HPLC analysis.
Filters with test article were extracted in 1:1 acetonitrile: methanol and analyzed by the HPLC-UV assay.

[3] = female, Sprague-Dawley, plasma, rat
[4] = Covaris and Ball Mill (60 min), 0.1% Tween 80, 15.06 mg/mL, Hospitak
[5] = Covaris and Ball Mill (60 min), 0.1% Tween 80, 15.08 mg/mL, Hudson MicroMist
[6] = Covaris and Ball Mill (60 min), 10% PEG-400, 15.08 mg/mL, Hudson MicroMist
[7] = Covaris, 0.1% Tween 80, 15.04 mg/mL, Aeroneb Solo
[8] = Sonicator and Ball Mill (60 min), 10% Ethanol, 15.00 mg/mL, Hudson MicroMist

## C[C@@H]1C[C@H](C)CN(S(=O)(=O)c2ccc3c(c2)C(=NO)c2cc(S(=O)(=O)N4C[C@H](C)C[C@H](C)C4)ccc2C3=NO)C1 [BC2059, tegavivint]
[1]
  CL lower than normal rat liver blood flow of 55 mL/min/kg: about 5.5 fold
[1]; [3]
  AUC(0-inf): 17200 ng·h/mL
  AUC(0-t): 14600 ng·h/mL
  MRT last: 4.07 h
[1]; female, Sprague-Dawley, plasma, rat, back extrapolated
  C0: 62.2 µg/mL
[1]; female, Sprague-Dawley, plasma, rat, mean, n=4
  clearance: 9.92 mL/min/kg
[1]; female, Sprague-Dawley, plasma, rat, mean, n=4, read-out: Vss
  Vd: 6.54 L/kg
[1]; female, Sprague-Dawley, rat, plasma, regression points 0.5, 1 and 2 h, read-out: T1/2 Alpha (converted)
  half-life: 0.546 h
[1]; female, Sprague-Dawley, rat, plasma, regression points 6, 8, 12 and 24 h, read-out: T1/2 Beta (converted)
  half-life: 13.8 h
[1]; rat
  Vss greater than normal body water of 0.7 L/kg: ~9.34 fold
[2]; Covaris and Ball Mill (10 min), 0.1% Tween 80, 15.58 mg/mL, Pari LC Plus
  Total Aerosol Conc.: 0.123 mg/L
[2]; [4]
  BC-2059 Aerosol Conc.: 66 µg/L
  Total Aerosol Conc.: 0.229 mg/L
[2]; [5]
  BC-2059 Aerosol Conc.: 86 µg/L
  Total Aerosol Conc.: 0.093 mg/L
[2]; [6]
  BC-2059 Aerosol Conc.: 7.2 µg/L
  Total Aerosol Conc.: 2.58 mg/L
[2]; [7]
  BC-2059 Aerosol Conc.: 1.3 µg/L
  Total Aerosol Conc.: 0.247 mg/L
[2]; [8]
  BC-2059 Aerosol Conc.: 20.2 µg/L
  Total Aerosol Conc.: 0.027 mg/L

Source: US12246010B2, “Formulations of tegavivint and related compounds” (Iterion Therapeutics, Inc., priority 2018, dated 2025)
